The target in assay [1] is T1, HiBit-BRG1 fusion protein (Homo sapiens, UniProt P51532).
T1 construct: expressed in transfected cells
The assay can be described thus: HiBiT-BRG1 cell-based degradation assay (Nano-Glo HiBiT Lytic Detection, 24 h). Particulars: HeLa cell line expressing HiBit-BRG1 and LgBit; for Dmax: read-out: BRG1 HiBit Degradation Maximum (%); for DC50: read-out: BRMG1 HiBit Degradation IC50. The procedure, abridged: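 HeLa cells stably expressing HiBiT-BRG1 plus LgBit, 5000/well, treated 24 h, then lysed with Nano-Glo HiBiT lytic reagent and luminescence read. % degradation normalised between DMSO (high control) and 2 μM reference BRM/BRG1 degrader (low control).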
For orientation: With HiBiT, luminescence reflects the tagged protein that the partner subunit can reach.

Assay [2] deals with T2, HiBit-BRM fusion protein (Homo sapiens, UniProt P51531).
T2 construct: expressed in transfected cells
T2 sequence (P51531 whole entry, the tested form may be a part): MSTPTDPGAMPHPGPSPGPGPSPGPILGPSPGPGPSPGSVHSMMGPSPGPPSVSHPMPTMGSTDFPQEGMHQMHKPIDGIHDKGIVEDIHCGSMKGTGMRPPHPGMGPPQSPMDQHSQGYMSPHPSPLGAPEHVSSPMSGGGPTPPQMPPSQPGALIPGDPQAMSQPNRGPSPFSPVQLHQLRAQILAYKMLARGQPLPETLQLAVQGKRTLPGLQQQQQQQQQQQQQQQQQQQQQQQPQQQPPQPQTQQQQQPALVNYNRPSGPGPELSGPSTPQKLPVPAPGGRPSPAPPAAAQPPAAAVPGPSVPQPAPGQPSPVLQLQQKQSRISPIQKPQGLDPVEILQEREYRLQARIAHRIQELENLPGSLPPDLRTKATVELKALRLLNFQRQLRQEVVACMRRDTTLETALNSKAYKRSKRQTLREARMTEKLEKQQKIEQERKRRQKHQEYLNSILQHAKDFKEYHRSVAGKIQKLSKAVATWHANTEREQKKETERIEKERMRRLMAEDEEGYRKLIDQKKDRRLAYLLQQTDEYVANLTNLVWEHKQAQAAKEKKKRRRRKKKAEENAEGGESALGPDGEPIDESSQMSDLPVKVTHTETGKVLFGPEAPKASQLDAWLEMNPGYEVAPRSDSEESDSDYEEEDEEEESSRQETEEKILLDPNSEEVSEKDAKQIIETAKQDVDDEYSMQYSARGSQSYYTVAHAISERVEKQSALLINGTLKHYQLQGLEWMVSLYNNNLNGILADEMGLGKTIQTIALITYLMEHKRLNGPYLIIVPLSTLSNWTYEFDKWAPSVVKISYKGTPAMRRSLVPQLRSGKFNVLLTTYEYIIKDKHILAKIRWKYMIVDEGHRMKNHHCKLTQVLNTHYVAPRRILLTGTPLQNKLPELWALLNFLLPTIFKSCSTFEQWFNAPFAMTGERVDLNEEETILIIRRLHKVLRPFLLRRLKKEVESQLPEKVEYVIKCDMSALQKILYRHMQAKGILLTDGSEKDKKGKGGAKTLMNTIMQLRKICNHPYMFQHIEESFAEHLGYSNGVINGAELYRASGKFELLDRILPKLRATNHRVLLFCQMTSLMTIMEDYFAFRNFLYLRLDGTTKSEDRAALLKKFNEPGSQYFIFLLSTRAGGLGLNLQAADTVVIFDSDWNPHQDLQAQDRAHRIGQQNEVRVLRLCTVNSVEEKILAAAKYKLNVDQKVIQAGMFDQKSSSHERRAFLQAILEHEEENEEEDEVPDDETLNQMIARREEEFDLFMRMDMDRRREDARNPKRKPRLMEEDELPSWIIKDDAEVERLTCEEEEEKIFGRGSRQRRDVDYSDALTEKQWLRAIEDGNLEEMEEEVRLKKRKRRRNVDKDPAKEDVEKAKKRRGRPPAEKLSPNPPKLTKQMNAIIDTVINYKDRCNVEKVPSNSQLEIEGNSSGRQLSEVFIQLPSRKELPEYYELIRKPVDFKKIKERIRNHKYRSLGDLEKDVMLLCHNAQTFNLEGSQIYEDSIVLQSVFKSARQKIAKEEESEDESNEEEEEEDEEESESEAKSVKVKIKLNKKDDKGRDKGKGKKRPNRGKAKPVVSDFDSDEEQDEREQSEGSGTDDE
The assay can be described thus: HiBiT-BRM cell-based degradation assay (Nano-Glo HiBiT Lytic Detection, 24 h). Particulars: HeLa cell line expressing HiBiT-BRM; for DC50: read-out: BRM HiBit Degradation IC50. The method, boiled down:
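HeLa cells stably expressing HiBiT-BRM were treated for 24 h with compounds (10-point 3-fold dilutions, 30 μM final top dose, in duplicate). HiBiT was detected by lytic LgBiT complementation luminescence. % degradation was normalized to DMSO (high control) and 2 μM of a reference BRM/BRG1 degrader (low control).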

T1 sequence (P51532 whole entry, the tested form may be a part): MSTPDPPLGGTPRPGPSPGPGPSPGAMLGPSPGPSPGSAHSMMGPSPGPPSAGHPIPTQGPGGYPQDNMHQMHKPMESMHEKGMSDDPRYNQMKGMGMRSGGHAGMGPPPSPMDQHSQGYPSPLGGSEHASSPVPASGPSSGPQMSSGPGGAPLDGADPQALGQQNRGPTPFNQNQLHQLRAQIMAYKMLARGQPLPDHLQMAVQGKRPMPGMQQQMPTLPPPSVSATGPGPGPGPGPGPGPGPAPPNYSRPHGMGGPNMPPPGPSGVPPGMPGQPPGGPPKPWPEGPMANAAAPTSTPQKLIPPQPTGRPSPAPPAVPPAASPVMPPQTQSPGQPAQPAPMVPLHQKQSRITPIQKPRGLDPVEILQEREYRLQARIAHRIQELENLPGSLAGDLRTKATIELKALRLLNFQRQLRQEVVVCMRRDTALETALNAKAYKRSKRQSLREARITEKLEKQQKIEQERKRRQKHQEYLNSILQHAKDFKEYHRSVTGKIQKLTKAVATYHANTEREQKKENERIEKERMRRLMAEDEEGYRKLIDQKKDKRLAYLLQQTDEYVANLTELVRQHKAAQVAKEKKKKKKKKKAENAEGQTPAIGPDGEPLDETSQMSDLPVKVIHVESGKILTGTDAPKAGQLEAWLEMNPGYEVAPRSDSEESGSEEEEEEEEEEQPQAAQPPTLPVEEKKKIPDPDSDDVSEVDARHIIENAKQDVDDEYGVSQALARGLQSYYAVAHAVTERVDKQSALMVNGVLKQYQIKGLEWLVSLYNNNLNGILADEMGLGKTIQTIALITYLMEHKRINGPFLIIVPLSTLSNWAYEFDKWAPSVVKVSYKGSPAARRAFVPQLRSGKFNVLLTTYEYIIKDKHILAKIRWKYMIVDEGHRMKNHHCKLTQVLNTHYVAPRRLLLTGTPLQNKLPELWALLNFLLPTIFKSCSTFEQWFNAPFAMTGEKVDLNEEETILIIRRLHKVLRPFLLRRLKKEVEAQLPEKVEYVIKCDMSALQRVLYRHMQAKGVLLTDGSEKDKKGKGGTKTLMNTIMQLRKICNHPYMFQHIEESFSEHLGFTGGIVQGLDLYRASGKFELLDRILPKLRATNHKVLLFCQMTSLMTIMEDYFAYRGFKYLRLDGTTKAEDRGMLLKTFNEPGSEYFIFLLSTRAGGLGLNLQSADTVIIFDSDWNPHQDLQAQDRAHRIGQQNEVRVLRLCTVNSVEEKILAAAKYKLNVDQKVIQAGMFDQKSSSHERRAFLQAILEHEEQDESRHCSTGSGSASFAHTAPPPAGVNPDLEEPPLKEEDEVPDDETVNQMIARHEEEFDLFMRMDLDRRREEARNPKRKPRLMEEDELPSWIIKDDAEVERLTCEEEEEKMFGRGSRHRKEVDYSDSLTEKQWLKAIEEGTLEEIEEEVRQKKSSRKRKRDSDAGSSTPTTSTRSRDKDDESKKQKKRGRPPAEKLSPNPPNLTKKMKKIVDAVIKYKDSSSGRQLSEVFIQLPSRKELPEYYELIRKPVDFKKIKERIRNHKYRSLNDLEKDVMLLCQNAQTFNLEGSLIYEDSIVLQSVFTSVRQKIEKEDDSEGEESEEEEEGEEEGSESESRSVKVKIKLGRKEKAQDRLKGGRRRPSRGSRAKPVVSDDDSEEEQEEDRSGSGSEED

As for `Cc1ncsc1-c1ccc([C@H](C)NC(=O)[C@@H]2C[C@@H](O)CN2C(=O)[C@@H](c2cc(OCCN3CC[C@H](c4c[nH]c5nnc(-c6ccccc6O)cc45)C3)no2)C(C)C)cc1` (racemic) [Compound 292, (2S,4R)-4-hydroxy-1-((R)-2-(3-(2-((R)-3-(3-(2-hydroxyphenyl)-7H-pyrrolo[2,3-c]pyridazin-5-yl)pyrrolidin-1-yl)ethoxy)isoxazol-5-yl)-3-methylbutanoyl)-N-((S)-1-(4-(4-methylthiazol-5-yl)phenyl)ethyl)pyrrolidine-2-carboxamide], the Dmax in assay [1] was below 50%. Also, in assay [2], the “BRM HiBit Degradation Maximum (%)” value was “B (“B” indicates maximum degradation ≥ 50%)” and the DC50 was above 100 nM.

For `Cc1ncsc1-c1ccc([C@H](C)NC(=O)[C@@H]2C[C@@H](O)CN2C(=O)[C@@H](c2cc(OCCN3CCC(c4c(C)[nH]c5nnc(-c6ccccc6O)cc45)CC3)no2)C(C)C)cc1` (racemic) [Compound 265, (2S,4R)-4-hydroxy-1-[(2R)-2-[3-(2-{4-[3-(2-hydroxyphenyl)-6-methyl-7H-pyrrolo[2,3-c]pyridazin-5-yl]piperidin-1-yl}ethoxy)-1,2-oxazol-5-yl]-3-methylbutanoyl]-N-[(1S)-1-[4-(4-methyl-1,3-thiazol-5-yl)phenyl]ethyl]pyrrolidine-2-carboxamide], the Dmax in assay [1] is below 50%. In assay [2], the “BRM HiBit Degradation Maximum (%)” value is “A (“A” indicates maximum degradation ≥ 75%)” and the DC50 was above 100 nM.

Regarding `Cc1ncsc1-c1ccc(CNC(=O)[C@@H]2C[C@@H](O)CN2C(=O)[C@@H](NCCC(=O)N2CC(c3cc4cc(-c5ccccc5O)nnc4[nH]3)C2)C(C)(C)C)cc1` (racemic) [Compound 50, (2S,4R)-4-hydroxy-1-((S)-2-((3-(3-(3-(2-hydroxyphenyl)-7H-pyrrolo[2,3-c]pyridazin-6-yl)azetidin-1-yl)-3-oxopropyl)amino)-3,3-dimethylbutanoyl)-N-(4-(4-methylthiazol-5-yl)benzyl)pyrrolidine-2-carboxamide], in assay [1], the Dmax was below 50%. Moreover, the “BRM HiBit Degradation Maximum (%)” value in assay [2] is on record as “C (“C” indicates maximum degradation < 50%)”.

Regarding `Cc1ncsc1-c1ccc([C@H](C)NC(=O)[C@@H]2C[C@@H](O)CN2C(=O)[C@@H](c2cc(OCCN3CC(c4[nH]c5nnc(-c6ccccc6O)cc5c4Br)C3)no2)C(C)C)cc1` (racemic) [Compound 120], the Dmax in assay [1] is below 50%. Moreover, in assay [2], the “BRM HiBit Degradation Maximum (%)” value is given as “A (“A” indicates maximum degradation ≥ 75%)” and the DC50 is above 10 nM.

For the molecule `Cc1ncsc1-c1ccc([C@H](C)NC(=O)[C@@H]2C[C@@H](O)CN2C(=O)[C@@H](c2cc(N3CCC(CN4CCc5[nH]c6nnc(-c7ccccc7O)cc6c5C4)CC3)no2)C(C)C)cc1` (racemic) [Compound 193, (2S,4R)-4-hydroxy-1-((R)-2-(3-(4-((3-(2-hydroxyphenyl)-5,7,8,9-tetrahydro-6H-pyrido [3′,4′:4,5]pyrrolo[2,3-c]pyridazin-6-yl)methyl)piperidin-1-yl)isoxazol-5-yl)-3-methylbutanoyl)-N-((S)-1-(4-(4-methylthiazol-5-yl)phenyl)ethyl)pyrrolidine-2-carboxamide], in assay [1], the Dmax was above 50% and the DC50 was above 100 nM. For the same molecule, in assay [2], the “BRM HiBit Degradation Maximum (%)” value is reported as “A (“A” indicates maximum degradation ≥ 75%)” and the DC50 was above 10 nM.

In the case of `Cc1ncsc1-c1ccc([C@H](C)NC(=O)[C@@H]2C[C@@H](O)CN2C(=O)C(c2cc(N3CCC(C(=O)N4CCc5[nH]c6nnc(-c7ccccc7O)cc6c5C4)CC3)no2)C(C)C)cc1` (mixture of isomers) [Compound 205, (2S,4R)-4-hydroxy-1-((R)-2-(3-(4-(3-(2-hydroxyphenyl)-6,7,8,9-tetrahydro-5H-pyrido[3′,4′:4,5]pyrrolo[2,3-c]pyridazine-6-carbonyl)piperidin-1-yl)isoxazol-5-yl)-3-methylbutanoyl)-N-((S)-1-(4-(4-methylthiazol-5-yl)phenyl)ethyl)pyrrolidine-2-carboxamide], the Dmax in assay [1] was below 50%. Also, the “BRM HiBit Degradation Maximum (%)” value in assay [2] is “C (“C” indicates maximum degradation < 50%)”.

Consider `Cc1ncsc1-c1ccc([C@H](C)NC(=O)[C@@H]2C[C@@H](O)CN2C(=O)[C@H](c2cc(N(C)CCN3CC(c4cc5cc(-c6ccccc6O)nnc5[nH]4)C3)no2)C(C)C)cc1` (racemic) [Compound 257, (2S,4R)-4-hydroxy-1-((S)-2-(3-((2-(3-(3-(2-hydroxyphenyl)-7H-pyrrolo[2,3-c]pyridazin-6-yl)azetidin-1-yl)ethyl)(methyl)amino)isoxazol-5-yl)-3-methylbutanoyl)-N-((S)-1-(4-(4-methylthiazol-5-yl)phenyl)ethyl)pyrrolidine-2-carboxamide], for which the Dmax in assay [1] was below 50%. Further, the “BRM HiBit Degradation Maximum (%)” value in assay [2] is given as “C (“C” indicates maximum degradation < 50%)”.

`Cc1ncsc1-c1ccc([C@H](C)NC(=O)[C@@H]2C[C@@H](O)CN2C(=O)[C@@H](c2cc(OCCN3CC4(CC(c5c[nH]c6nnc(-c7ccccc7O)cc56)C4)C3)no2)C(C)C)cc1` (racemic) [Compound 304, (2S,4R)-4-hydroxy-1-((R)-2-(3-(2-(6-(3-(2-hydroxyphenyl)-7H-pyrrolo[2,3-c]pyridazin-5-yl)-2-azaspiro[3.3]heptan-2-yl)ethoxy)isoxazol-5-yl)-3-methylbutanoyl)-N-((S)-1-(4-(4-methylthiazol-5-yl)phenyl)ethyl)pyrrolidine-2-carboxamide]: in assay [1], the Dmax is above 75% and the DC50 was above 100 nM. Moreover, in assay [2], the “BRM HiBit Degradation Maximum (%)” value is on record as “A (“A” indicates maximum degradation ≥ 75%)” and the DC50 is above 10 nM.

Consider `O=C1CCC(N2C(=O)c3cccc(NCCCCCCCCCCC(=O)N4CC(c5cc6cc(-c7ccccc7O)nnc6[nH]5)C4)c3C2=O)C(=O)N1` (stereo not shown) [Compound 28, 2-(2,6-dioxopiperidin-3-yl)-4-((11-(3-(3-(2-hydroxyphenyl)-7H-pyrrolo[2,3-c]pyridazin-6-yl)azetidin-1-yl)-11-oxoundecyl)amino)isoindoline-1,3-dione], for which the Dmax in assay [1] was below 50%. For the same molecule, in assay [2], the “BRM HiBit Degradation Maximum (%)” value was “C (“C” indicates maximum degradation < 50%)”.

For `Cc1ncsc1-c1ccc([C@H](C)NC(=O)[C@@H]2C[C@@H](O)CN2C(=O)[C@H](c2cc(C3CN(C(=O)[C@@H]4CCc5[nH]c6nnc(-c7ccccc7O)cc6c5C4)C3)no2)C(C)C)cc1` (single isomer, unassigned) [Compound 154], the Dmax in assay [1] is below 50%. In assay [2], the “BRM HiBit Degradation Maximum (%)” value was “C (“C” indicates maximum degradation < 50%)”.

Consider `Cc1ncsc1-c1ccc([C@H](C)NC(=O)[C@@H]2C[C@@H](O)CN2C(=O)[C@@H](c2cc(N3CCC(CN(C)[C@H]4CCc5[nH]c6nnc(-c7ccccc7O)cc6c5C4)CC3)no2)C(C)C)cc1` [Compound 107, (2S,4R)-4-hydroxy-1-((R)-2-(3-(4-((((S)-3-(2-hydroxyphenyl)-6,7,8,9-tetrahydro-5H-pyridazino[3,4-b]indol-6-yl)(methyl)amino)methyl)piperidin-1-yl)isoxazol-5-yl)-3-methylbutanoyl)-N-((S)-1-(4-(4-methylthiazol-5-yl)phenyl)ethyl)pyrrolidine-2-carboxamide], for which, in assay [1], the Dmax was above 75% and the DC50 was above 10 nM. In assay [2], the “BRM HiBit Degradation Maximum (%)” value was “A (“A” indicates maximum degradation ≥ 75%)” and the DC50 was above 10 nM.

With `Cc1ncsc1-c1ccc(CNC(=O)[C@@H]2C[C@@H](O)CN2C(=O)[C@@H](NC(=O)CCC(=O)N[C@@H]2CCc3[nH]c4nnc(-c5ccccc5O)cc4c3C2)C(C)(C)C)cc1` [Compound 171, N1-((S)-1-((2S,4R)-4-hydroxy-2-((4-(4-methylthiazol-5-yl)benzyl)carbamoyl)pyrrolidin-1-yl)-3,3-dimethyl-1-oxobutan-2-yl)-N4-((R)-3-(2-hydroxyphenyl)-6,7,8,9-tetrahydro-5H-pyridazino[3,4-b]indol-6-yl)succinamide], the Dmax in assay [1] is below 50%. In addition, the “BRM HiBit Degradation Maximum (%)” value in assay [2] is on record as “C (“C” indicates maximum degradation < 50%)”.

For `Cc1ncsc1-c1ccc([C@H](C)NC(=O)[C@@H]2C[C@@H](O)CN2C(=O)[C@@H](c2cc(C3CCN(C(=O)[C@H]4C[C@@]5(Cc6cc(-c7ccccc7O)nnc6N5)C4)CC3)no2)C(C)C)cc1` (racemic) [Compound 69, (2S,4R)-4-hydroxy-1-((R)-2-(3-(1-((1R,3s)-3′-(2-hydroxyphenyl)-5′,7′-dihydrospiro[cyclobutane-1,6′-pyrrolo[2,3-c]pyridazine]-3-carbonyl)piperidin-4-yl)isoxazol-5-yl)-3-methylbutanoyl)-N-((S)-1-(4-(4-methylthiazol-5-yl)phenyl)ethyl)pyrrolidine-2-carboxamide], the Dmax in assay [1] is below 50%. In addition, in assay [2], the “BRM HiBit Degradation Maximum (%)” value is recorded as “A (“A” indicates maximum degradation ≥ 75%)” and the DC50 was above 10 nM.

With `Cc1ncsc1-c1ccc([C@H](C)NC(=O)[C@@H]2C[C@@H](O)CN2C(=O)[C@@H](c2cc(N3CCC(CN4CCc5[nH]c6nnc(-c7ccccc7O)cc6c5[C@H]4C)CC3)no2)C(C)C)cc1` (racemic) [Compound 81, (2S,4R)-4-hydroxy-1-[(2R)-2-[3-(4-{[(3R)-12-(2-hydroxyphenyl)-3-methyl-4,8,10,11-tetraazatricyclo[7.4.0.0^{2,7}]trideca-1(13),2(7),9,11-tetraen-4-yl]methyl}piperidin-1-yl)-1,2-oxazol-5-yl]-3-methylbutanoyl]-N-[(1S)-1-[4-(4-methyl-1,3-thiazol-5-yl)phenyl]ethyl]pyrrolidine-2-carboxamide], in assay [1], the Dmax is above 75% and the DC50 is above 100 nM. In addition, in assay [2], the “BRM HiBit Degradation Maximum (%)” value is recorded as “A (“A” indicates maximum degradation ≥ 75%)” and the DC50 was above 10 nM.
